In EP1344776A1, “5- 2-hydroxy-3-[1-(3-trifluoromethylphenyl)-cyclopropyl]-propionylamino -phtalide and 6- 2-hydroxy-3-[1-(3-trifluoromethylphenyl)-cyclopropyl]-propionylamino -4-methyl-2,3-benzoxazin-1-one derivatives with progesterone receptor modulating activity for use in fertility control, hormone replacement …” (Schering Aktiengesellschaft, priority 2002, dated 2003):
Where two headings read alike, the source gives them in different places.

What was measured:
[1] = system: rat mammary epithelium; assay: Bioassay on proliferating/differentiating effects in the rat mammary epithelium (whole mount staining); type: in vivo
Protocol: The object of this test is to evaluate the effect of progestins on the development of the mammary gland, in particular on the formation of terminal end buds in the mammary gland in estrogen primed rats.
Premature female rats (Wistar Han, SPF) are ovariectomized at the age of 21 days, 4 to 6 days before treatment start. The animals are treated for 6 days with standard estrogen (estrone, 70 µg/kg) and the test progestin (application volume: 0.1 ml/50g body weight; vehicle: benzylbenzoate/castor oil (1+4 v/v); subcutaneous). Control groups are e.g.: vehicle, estrone without progestin, estradiol together with a known progestin, e.g. R5020 (promegestone). After the 6-day treatment the animals are killed with carbon dioxide.
For the whole mount staining, animals are shaved in the left abdominal inguinal mammary region, which is cut from the body together with the skin. For the histological/immunohistochemical analyses the right abdominal inguinal mammary gland is cut from the body together with the connective tissue adhered thereto and fixed in 3.7 % formalin in PBS (phosphate buffer saline; without Ca^2+/Mg^2+).
The preparations are fixed over night in alcohol-formalin according to the method of Tellyesniczky (see below). Then the mammary gland tissue and subcutis adhered thereto are stripped from the cutis and the preparations are again fixed over night. The further steps are as follows: ethanol 70 %: 1.5 hours; acetone: 3 × 1.5 hours; acetone: over night; isopropanol: 1.5 hours; ethanol 96 %: 2 hours; hematoxylin-iron: 3 hours; VE water: first rinse the preparations and then 2 × 0.5 hours; ethanol 70 %: over night; ethanol 80 %: 1.5 hours; ethanol 96 %: 1.5 hours; isopropanol: 1.5 hours. The preparations are then moved to petri dishes and left in toluene for approximately 1 hour, i.e. until they have stopped to swim up. Then the preparations are treated with cedarwood oil (Merck, no. 1.06965). The incubation times above are minimum times and can be extended. In particular, incubation in ethanol 70 % after fixation can be extended to at least 2.5 weeks.
Preparation of the solutions necessary for the whole mount staining: • a) Alcohol-formalin according to Tellyesniczky: formaldehyde 37%: 81.8 ml, ethanol 70 %: 1636 ml, glacial acetic acid (to be added shortly before use): 81.8 ml (total: 1800 ml). • b) Hematoxylin mother solution: Hematoxylin (Merck, no. 1.15938): 10 g, ethanol 96 %: 100 ml. The solution must stand for 48 hours at 37 °C before use. It can be kept in a dark place for almost unlimited time. • c) Hematoxylin-iron solution for use: hematoxylin mother solution (filtered): 15.2 ml, ethanol 96 %: 1374 ml, FeCl3 x 6 H2O (s. 4): 91.1 ml, 1 mol/l HCl: 220 ml (total: 1700 ml); adjustment to a pH of 1.25 with 2mol/l NaOH. • d) FeCl3 x 6 H2O solution: FeCl3 x 6 H2O (Merck, no. 1.03943): 1.07 g, VE water: 90.2 ml, HCl: 37 %: 0.92 ml (total: 91.1 ml).
By means of a 40-fold magnification, the terminal end buds near the nipple in direction of the tail are counted. The area to be investigated should be about 1.8 mm^2. For well-differentiated preparations this area may be reduced, with at least 250 buds to be counted. After counting, the number of end buds per 1 mm^2 is calculated. […]

[2] = system: juvenile female rabbits; assay: Endometrial transformation in rabbit (Clauberg test); type: in vivo; conditions: for McPhail Index: scores 1 to 4; for minimal effective dose: Oryctolagus cuniculus, read-out: Threshold Value
[3] = system: hPR-B; assay: PR-B transcription assay (MTV-LUC reporter, SK-N-MC cells); type: cell-based, human; conditions: 10^-7 mol/l test compound relative to R5020 10^-7 mol/l, 24 hours, 0.1 µM
Protocol: The method for screening for PR isoform-specific progestins according to the present invention is carried out with first and second SK-N-MC cells stably transfected with a plasmid expressing the hPR-A (first cells) or the hPR-B (second cells) and the LUC reporter gene linked to the hormonally responsive MTV promoter.
The cells are cultured in Minimum Essential Medium with Earl's Salts (S-MEM, without L-glutamine; Gibco BRL, no. 21090-022), supplemented with 10 % fetal calf serum (FCS), penicillin 100U/streptomycin 100 µg/ml (Biochrom, no. A2213), L-glutamine 4 mmol/l (Gibco BRL, no. 25030-024), sodium pyruvate 1 mmol/l (Biochrom, no. L0473) and 1x non-essential amino acids (Biochrom, no. K0293) at a temperature of 37 °C and in an atmosphere of 5 % carbon dioxide.
For the transcription assay, the cells are seeded onto 96-well dishes (2x 10^4 cells/dish) and cultured in a medium as described above, with the exception that the FCS is replaced by a 3 % charcoal stripped FCS. 48 hours later, cells are contacted with prediluted test compounds. For determination of agonistic activity, cells are cultured in the presence of increasing concentrations (10^-6 to 10^-11 mol/l) of test progestins. As a positive control for reporter gene induction cells are treated with 10^-6 to 10^-11 mol/l R5020 (promegestone). As a negative control for reporter gene induction, cells are cultured in 1 % ethanol.
After incubation with test progestins for 24 hours, the medium is removed and cells are lysed with 20 µl of lysis buffer (Luciferase Assay System E 153A; Promega) and under agitation of the plate for 10 min. After addition of 30 µl of luciferase reagent (Luciferase Assay System E 151A + 152A; Promega) within 30 seconds per plate, the activity of the luciferase reporter gene product is determined in the cell lysates by means of a Microlite ML 3000 microtiter plate luminometer (Dynatech) in cycle mode.
Evaluation of the response gives the efficacy [%], and evaluation of the EC50 values gives the potency [nM]. Calculation of the agonistic activity is conducted as follows:
The LUC activity [%] for the measured data points is calculated as follows: relative LUC activity [%] = 100 x((response 10)^-6 (to 10)^-11 mol/l test compound - CO)/(CI - CO) [formula] wherein CI = 100 % stimulation (R5020, 10^-7 mol/l) and CO = 0 % stimulation (ethanol, 1 %).
Thus, the efficacy [%] is calculated according to: efficacy [%] = 100 x((response 10)^-7 mol/l test compound - CO)/(CI - CO) [formula]
The potency [nM], i.e. the EC50, is determined graphically.

[4] = system: orchidectomized rats; assay: Androgenic / anti-androgenic activity in orchidectomized rats (prostate weight, seminal vesicle); type: in vivo, rat; conditions: prostate weight and seminal vesicle
Excerpt: The absence of androgenic as well as anti-androgenic activity in vivo was confirmed by tests performed with orchidectomized rats (change in prostate weight and in the seminal vesicle).

SMILES: O=C1OCc2cc(NC(=O)C(O)(CC3(c4cc(C(F)(F)F)ccc4F)CC3)C(F)(F)F)ccc21 (single isomer, unassigned; (+)) [((+)-1), (+)-5-{2-hydroxy-3-[1-(2-fluoro-5-trifluoromethylphenyl)-cyclopropyl]-2-trifluoromethyl-propionylamino}-phthalide]
- Mammary gland, whole mount staining (rat) [equi-efficient dose], factor compared to R5020 ([1]; median of three independent tests): ca. 1
- effects at the mammary gland ([1]; rat, amount suitable for maintaining pregnancy): no effects at the mammary gland are observed
- Mammary gland, whole mount staining (rat) [equi-efficient dose] ([1]; terminal end buds, dose pair with 0.1 mg/kg R5020, independent test): 0.03 mg/kg
- McPhail Index ([2]; Oral (p.o.), 0.001 mg/kg): 1.2
- McPhail Index ([2]; Oral (p.o.), 0.01 mg/kg): 2.5
- McPhail Index ([2]; Oral (p.o.), 0.1 mg/kg): 3.0
- minimal effective dose ([2]; sc, Subcutaneous (s.c.)): 0.001 to 0.01 mg/kg
- minimal effective dose ([2]; Oral (p.o.)): 0.001 to 0.01 mg/kg
- McPhail Index ([2]; Subcutaneous (s.c.), 0.001 mg/kg): 1.0
- McPhail Index ([2]; Subcutaneous (s.c.), 0.01 mg/kg): 2.7
- McPhail Index ([2]; Subcutaneous (s.c.), 0.1 mg/kg): 3.8
- PR-B agonism efficacy [3]: 25%
- androgenic activity in vivo [4]: no androgenic
- anti-androgenic activity in vivo [4]: no anti-androgenic activity
